Test results reported in article PMC6409085, “Three odorant-binding proteins are involved in the behavioral response of Sogatella furcifera to rice plant volatiles” (PeerJ, 2019).
pKd: −log10 of the molar value. “And” between values parts separate entries of the source, which are not always exact repeats. Equal values may be shown once.

Key:
SfurOBP3 = SfurOBP3 (Sogatella furcifera, UniProt V5T818); test: Binding of 1-NPN to SfurOBP3 (fluorescence titration); details: for Fluorescence intensity: OBP3, triplicate columns
Chain of SfurOBP3 (V5T818 entry or part of it): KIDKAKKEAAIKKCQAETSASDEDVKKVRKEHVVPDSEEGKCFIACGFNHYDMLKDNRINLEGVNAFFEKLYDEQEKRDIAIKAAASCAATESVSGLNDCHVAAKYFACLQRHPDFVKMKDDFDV
Experimental: (§1) Fluorescence competitive binding assays were performed on Tecan Spark 10M (Tecan Group Ltd., Männedorf, Switzerland) with the F96 Black ELIAS Plate (Sangon) ([Khuhro et al., 2017]; [Liu et al., 2017]). The solutions were excited at 337 nm and emission spectra were recorded between 390 and 490 nm. First, to test the binding constants of 1-NPN to the SfurOBPs, a 2.0 µM solution of protein in 50 mM Tris-HCl (pH = 7.4) was titrated with 1 mM 1-NPN to achieve virous concentrations. Next, the competitive binding of each odorant was measured using the 1-NPN as fluorescent reporter and odorant as competitor. The concentrations of protein and 1-NPN were both 2.0 µM, the odorant added after protein and 1-NPN added into the well of ELIAS Plate for 2 min. The final concentrations of each competitor were 2, 4, 6, 8, 10, 12, 14, 16, 18 and 20 µM. After 2 min of odorant added, the fluorescence intensity was measured and recorded. The volume of mixed solution in each well was maintained at 250 µL. Each interaction was performed in triplicates.
(§2) GraphPad Prism 7.0 software (GraphPad Software, Inc., La Jolla, CA, USA) was used to calculated and generated the binding constants (K1−NPN) of 1-NPN to SfurOBPs and relative Scatchard plots ([Ban et al., 2003]; [Li et al., 2016]). Dissociation constant (Ki) of each odorant to SfurOBP was computed from the corresponding IC50 value (the half maximal inhibitory concentration), using the following equation: Ki=[IC50]/(1 + [1-NPN]/K1−NPN), where [1-NPN] is the free concentration of 1-NPN and K1−NPN is the dissociation constant of the complex protein/1-NPN.

SfurOBP2 = SfurOBP2 (Sogatella furcifera, UniProt V5T759); test: Binding of 1-NPN to SfurOBP2 (fluorescence titration); details: for Fluorescence intensity: OBP2, triplicate columns
Chain of SfurOBP2 (V5T759 entry or part of it): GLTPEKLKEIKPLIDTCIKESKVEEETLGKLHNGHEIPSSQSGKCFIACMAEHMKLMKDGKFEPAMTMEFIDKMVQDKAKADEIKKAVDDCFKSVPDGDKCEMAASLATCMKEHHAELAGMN
Experimental: as §1, §2

SfurOBP1 = SfurOBP1 (Sogatella furcifera, UniProt V5T8N5); test: Binding of 1-NPN to SfurOBP1 (fluorescence titration); details: for Fluorescence intensity: OBP1, triplicate columns
Chain of SfurOBP1 (V5T8N5 entry or part of it): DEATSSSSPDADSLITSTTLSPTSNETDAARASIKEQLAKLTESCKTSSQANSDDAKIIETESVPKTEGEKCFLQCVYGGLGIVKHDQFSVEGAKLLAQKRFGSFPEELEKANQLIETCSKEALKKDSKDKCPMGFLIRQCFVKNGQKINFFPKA
Experimental: as §1, §2

SfurOBP11 = SfurOBP11 (Sogatella furcifera, UniProt V5T6E3); test: Binding of 1-NPN to SfurOBP11 (fluorescence titration); details: for Fluorescence intensity: OBP11, triplicate columns
Chain of SfurOBP11 (V5T6E3 entry or part of it): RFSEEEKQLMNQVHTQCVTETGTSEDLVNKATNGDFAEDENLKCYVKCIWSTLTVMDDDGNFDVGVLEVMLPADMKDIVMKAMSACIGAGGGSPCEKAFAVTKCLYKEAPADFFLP
Experimental: as §1, §2

c1ccc(Nc2cccc3ccccc23)cc1 [1-NPN, N-phenyl-1-naphthylamine]
Fluorescence intensity (SfurOBP3; 1-NPN 2 (unit not given)): 61430 and 58985 and 59650 | Fluorescence intensity (SfurOBP3; 1-NPN 4 (unit not given)): 77503 and 80113 and 80262 | Fluorescence intensity (SfurOBP3; 1-NPN 6 (unit not given)): 85325 and 83919 and 82776 | Fluorescence intensity (SfurOBP3; 1-NPN 8 (unit not given)): 97386 and 97137 and 85039 | Fluorescence intensity (SfurOBP3; 1-NPN 10 (unit not given)): 98049 and 103605 and 94167 | Fluorescence intensity (SfurOBP3; 1-NPN 12 (unit not given)): 100936 and 110967 and 98958 | Fluorescence intensity (SfurOBP3; 1-NPN 14 (unit not given)): 99019 and 113580 and 103187 | Fluorescence intensity (SfurOBP3; 1-NPN 16 (unit not given)): 114929 and 113428 and 104178 | Fluorescence intensity (SfurOBP3; 1-NPN 18 (unit not given)): 121020 and 111471 and 116920 | Fluorescence intensity (SfurOBP3; 1-NPN 20 (unit not given)): 114200 and 113028 and 114937 | Fluorescence intensity (SfurOBP3; 1-NPN 22 (unit not given)): 115221 and 112203 and 110696 | Fluorescence intensity (SfurOBP3; 1-NPN 24 (unit not given)): 120756 and 110811 and 112155 | Fluorescence intensity (SfurOBP3; 1-NPN 26 (unit not given)): 117527 and 109823 and 115694 | Fluorescence intensity (SfurOBP3; 1-NPN 28 (unit not given)): 107913 and 111968 and 118918 | Fluorescence intensity (SfurOBP3; 1-NPN 30 (unit not given)): 110746 and 113690 and 116658 | pKd (SfurOBP3; SfurOBP3, 2.0 µM protein, 50 mM Tris-HCl pH 7.4, read-out: dissociation constant of 1-NPN): 5.62 | Fluorescence intensity (SfurOBP2; 1-NPN 2 (unit not given)): 23662 and 22289 and 22010 | Fluorescence intensity (SfurOBP2; 1-NPN 4 (unit not given)): 39603 and 44704 and 31870 | Fluorescence intensity (SfurOBP2; 1-NPN 6 (unit not given)): 50431 and 46158 and 47197 | Fluorescence intensity (SfurOBP2; 1-NPN 8 (unit not given)): 61337 and 63137 and 57001 | Fluorescence intensity (SfurOBP2; 1-NPN 10 (unit not given)): 59819 and 73730 and 69974 | Fluorescence intensity (SfurOBP2; 1-NPN 14 (unit not given)): 64863 and 65896 and 57584 | Fluorescence intensity (SfurOBP2; 1-NPN 16 (unit not given)): 70787 and 76872 and 65200 | Fluorescence intensity (SfurOBP2; 1-NPN 18 (unit not given)): 75833 and 70878 and 75400 | Fluorescence intensity (SfurOBP2; 1-NPN 20 (unit not given)): 67482 and 73624 and 78268 | Fluorescence intensity (SfurOBP2; 1-NPN 22 (unit not given)): 76334 and 74639 and 64277 | pKd (SfurOBP2; SfurOBP2, 2.0 µM protein, 50 mM Tris-HCl pH 7.4, read-out: dissociation constant of 1-NPN): 5.25 | Fluorescence intensity (SfurOBP1; 1-NPN 2 (unit not given)): 7934 and 7244 and 7558 | Fluorescence intensity (SfurOBP1; 1-NPN 4 (unit not given)): 14870 and 13520 and 13256 | Fluorescence intensity (SfurOBP1; 1-NPN 6 (unit not given)): 19450 and 20173 and 19826 | Fluorescence intensity (SfurOBP1; 1-NPN 8 (unit not given)): 25948 and 27851 and 26112 | Fluorescence intensity (SfurOBP1; 1-NPN 10 (unit not given)): 30874 and 31162 and 28910 | Fluorescence intensity (SfurOBP1; 1-NPN 12 (unit not given)): 33259 and 35914 and 35970 | Fluorescence intensity (SfurOBP1; 1-NPN 14 (unit not given)): 37528 and 37617 and 40532 | Fluorescence intensity (SfurOBP1; 1-NPN 16 (unit not given)): 43674 and 43309 and 43505 | Fluorescence intensity (SfurOBP1; 1-NPN 18 (unit not given)): 50472 and 51665 and 48009 | Fluorescence intensity (SfurOBP1; 1-NPN 20 (unit not given)): 53471 and 53438 and 53794 | Fluorescence intensity (SfurOBP1; 1-NPN 22 (unit not given)): 54404 and 53461 and 54332 | Fluorescence intensity (SfurOBP1; 1-NPN 24 (unit not given)): 55616 and 55933 and 55336 | Fluorescence intensity (SfurOBP1; 1-NPN 26 (unit not given)): 55005 and 58722 and 54776 | Fluorescence intensity (SfurOBP1; 1-NPN 28 (unit not given)): 60087 and 56565 and 53471 | Fluorescence intensity (SfurOBP1; 1-NPN 30 (unit not given)): 59000 and 55051 and 51066 | pKd (SfurOBP1; SfurOBP1, 2.0 µM protein, 50 mM Tris-HCl pH 7.4, read-out: dissociation constant of 1-NPN): 4.62 | Fluorescence intensity (SfurOBP11; 1-NPN 2 (unit not given)): 34926 and 31369 and 32128 | Fluorescence intensity (SfurOBP11; 1-NPN 4 (unit not given)): 46136 and 60649 and 53421 | Fluorescence intensity (SfurOBP11; 1-NPN 6 (unit not given)): 59058 and 63562 and 67479 | Fluorescence intensity (SfurOBP11; 1-NPN 8 (unit not given)): 73431 and 79398 and 77472 | Fluorescence intensity (SfurOBP11; 1-NPN 10 (unit not given)): 83685 and 83190 and 84209 | Fluorescence intensity (SfurOBP11; 1-NPN 12 (unit not given)): 87527 and 87829 and 87441 | Fluorescence intensity (SfurOBP11; 1-NPN 14 (unit not given)): 113208 and 119321 and 82397 | Fluorescence intensity (SfurOBP11; 1-NPN 16 (unit not given)): 121541 and 129453 and 101542 | Fluorescence intensity (SfurOBP11; 1-NPN 18 (unit not given)): 129684 and 132053 and 101150 | Fluorescence intensity (SfurOBP11; 1-NPN 20 (unit not given)): 142842 and 126669 and 108121 | Fluorescence intensity (SfurOBP11; 1-NPN 22 (unit not given)): 118001 and 129399 and 126785 | Fluorescence intensity (SfurOBP11; 1-NPN 24 (unit not given)): 123359 and 122043 and 121686 | pKd (SfurOBP11; SfurOBP11, 2.0 µM protein, 50 mM Tris-HCl pH 7.4, read-out: dissociation constant of 1-NPN): 4.98
